Here are results for five compounds from patent publication US12570609B2, “Tricyclic sulfones as ROR gamma modulators” (BRISTOL-MYERS SQUIBB COMPANY, priority 2020, dated 2026).

Bounds are passed on as bounds.

What all share (format): cell-based
The subject of one data set is IL17A. The experiment in a line: Human whole blood assay (IL17A content, AlphaLISA). The conditions noted are these: compared with Compound A.
Data set [1] deals with T1, human sodium channel gene SCN5A ion channel (Homo sapiens, UniProt Q14524).
T1 construct: expressed in transfected cells
Description: Patch clamp assay for sodium channel recording. The following applies: HEK 293 cells expressing SCN5A.
Description: All results are reported as mean±SEM. DMSO was used as a vehicle, with the final concentration of DMSO not exceeding 0.1%.
Membrane current recordings were made with a Multiclamp 700 series integrating patch-clamp amplifier (Axon Instruments, Foster City, California) using the whole-cell variant of the conventional patch-clamp technique. Cells expressing sodium SCN5A ion channels were placed in a plexiglass bath chamber, mounted on the stage of an inverted microscope, and perfused continuously with bath solution.
The sodium current bath solution, contained (in mM): 140 NaCl, 4 KCl, 1.8 CaCl2, 1 MgCl2, 10 glucose, 10 HEPES (pH 7.4, NaOH). […]
For determining steady state inhibition, sodium currents were elicited every 5 seconds (0.2 Hz) using the following voltage protocol. […] The peak sodium current in response to the depolarizing step to −20 mV was monitored in the control buffer and after application of test article until a new steady state in the presence of the test article was achieved. […] Rate dependent inhibition was calculated by comparing the average of the last 3 sweeps of 30 voltage sweeps in presence of test article to the average of the last 3 sweeps of 30 voltage sweeps under control conditions at each frequency tested.
Currents were sampled at rates at least 2 times the low pass filter rate. […] All currents were recorded at room temperature ˜25° C.

A further data set has as its target T2, RORγ (Homo sapiens, UniProt P51449).
T2 construct: Jurkat pEx/Gal/hRORγCLBD/HYG pG5luc/blast; expressed in transfected cells
T2 sequence (P51449 269-508 limits assumed): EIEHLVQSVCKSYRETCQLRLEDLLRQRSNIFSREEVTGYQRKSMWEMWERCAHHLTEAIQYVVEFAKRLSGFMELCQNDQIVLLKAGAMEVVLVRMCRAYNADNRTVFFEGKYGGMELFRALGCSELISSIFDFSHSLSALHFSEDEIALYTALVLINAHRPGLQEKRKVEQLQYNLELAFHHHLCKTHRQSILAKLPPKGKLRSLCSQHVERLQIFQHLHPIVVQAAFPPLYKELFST
Description: RORγ Gal4 reporter assay (Gal4-luciferase, Jurkat cells). The conditions noted are these: Jurkat cells over-expressing RORγ, overnight incubation. On the procedure: General RORγ Gal4 Reporter Assay
Inverse agonist activity of potential ligands to RORγ was measured by inhibition of luminescence in a Gal4-luciferase reporter assay in Jurkat cells.
The following day, cells were lysed with 10 μL of Steady-Glo Luciferase Assay System (Promega Cat. No. EZ550), and analyzed immediately. IC50 values were determined.

T1 sequence (Q14524 whole entry): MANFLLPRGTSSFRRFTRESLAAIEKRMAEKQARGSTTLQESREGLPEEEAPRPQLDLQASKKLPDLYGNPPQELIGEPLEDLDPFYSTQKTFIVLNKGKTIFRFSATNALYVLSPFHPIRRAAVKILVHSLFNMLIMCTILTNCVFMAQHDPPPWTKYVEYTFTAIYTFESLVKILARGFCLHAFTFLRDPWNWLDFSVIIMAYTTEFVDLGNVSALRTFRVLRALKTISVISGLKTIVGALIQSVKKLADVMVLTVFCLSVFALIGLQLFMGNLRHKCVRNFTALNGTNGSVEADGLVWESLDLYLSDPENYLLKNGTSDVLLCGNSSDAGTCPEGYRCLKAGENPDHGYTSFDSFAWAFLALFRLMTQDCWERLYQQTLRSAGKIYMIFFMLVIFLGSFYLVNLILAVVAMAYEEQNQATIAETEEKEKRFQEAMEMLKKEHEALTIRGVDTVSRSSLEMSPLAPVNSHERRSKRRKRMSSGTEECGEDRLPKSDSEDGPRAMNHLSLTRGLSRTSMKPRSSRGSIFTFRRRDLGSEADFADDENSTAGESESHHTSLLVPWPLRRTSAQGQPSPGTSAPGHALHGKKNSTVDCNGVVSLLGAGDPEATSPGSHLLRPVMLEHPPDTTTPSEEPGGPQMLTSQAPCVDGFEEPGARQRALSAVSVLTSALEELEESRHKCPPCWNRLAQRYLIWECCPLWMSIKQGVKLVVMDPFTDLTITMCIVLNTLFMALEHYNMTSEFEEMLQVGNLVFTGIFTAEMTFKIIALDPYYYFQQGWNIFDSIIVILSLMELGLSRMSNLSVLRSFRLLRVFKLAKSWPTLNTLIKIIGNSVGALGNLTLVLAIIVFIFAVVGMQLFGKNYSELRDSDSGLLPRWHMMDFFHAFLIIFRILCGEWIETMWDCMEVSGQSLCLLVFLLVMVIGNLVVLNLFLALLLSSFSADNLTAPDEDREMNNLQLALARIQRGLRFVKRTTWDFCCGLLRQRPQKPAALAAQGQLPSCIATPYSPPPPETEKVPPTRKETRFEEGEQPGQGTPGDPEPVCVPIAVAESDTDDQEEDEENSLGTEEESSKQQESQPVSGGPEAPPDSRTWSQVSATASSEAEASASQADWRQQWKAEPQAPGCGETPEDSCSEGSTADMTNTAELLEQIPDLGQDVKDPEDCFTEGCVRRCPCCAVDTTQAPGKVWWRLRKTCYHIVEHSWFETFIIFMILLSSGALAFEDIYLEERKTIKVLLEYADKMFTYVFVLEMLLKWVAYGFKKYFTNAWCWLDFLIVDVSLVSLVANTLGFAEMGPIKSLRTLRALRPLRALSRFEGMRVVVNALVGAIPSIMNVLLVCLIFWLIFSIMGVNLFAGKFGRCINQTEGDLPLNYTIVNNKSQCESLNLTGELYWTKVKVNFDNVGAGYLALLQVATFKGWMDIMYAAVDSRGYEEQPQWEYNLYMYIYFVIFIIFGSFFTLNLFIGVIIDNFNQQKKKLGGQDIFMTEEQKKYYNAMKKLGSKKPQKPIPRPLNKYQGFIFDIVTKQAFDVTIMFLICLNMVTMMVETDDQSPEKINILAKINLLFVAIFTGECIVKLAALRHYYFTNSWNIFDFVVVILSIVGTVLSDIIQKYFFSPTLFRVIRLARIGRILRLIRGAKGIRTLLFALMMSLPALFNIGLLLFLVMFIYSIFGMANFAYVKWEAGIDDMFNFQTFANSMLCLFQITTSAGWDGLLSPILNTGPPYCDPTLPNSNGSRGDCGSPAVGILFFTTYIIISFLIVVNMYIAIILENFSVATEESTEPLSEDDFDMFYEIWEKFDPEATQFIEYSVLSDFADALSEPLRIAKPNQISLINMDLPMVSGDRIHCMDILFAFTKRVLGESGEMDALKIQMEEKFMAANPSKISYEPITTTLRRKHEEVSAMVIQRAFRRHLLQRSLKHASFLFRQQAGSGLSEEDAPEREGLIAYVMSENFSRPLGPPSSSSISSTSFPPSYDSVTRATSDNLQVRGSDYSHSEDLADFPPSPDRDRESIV
Description for IL17A: The compounds were diluted in dimethyl sulfoxide (DMSO) and were transferred to individual wells of a Matrix Technologies clear, V-bottom 384-well plate using the ECHO acoustic liquid handling technology (60 nL per well). Human whole blood samples (30 μL) were added to each well using a CyBio FeliX liquid handling instrument and the plate was shaken on a plate shaker for 3 min, incubating at 37° C. for 1 h. Wells were then treated with CD3+CD28 with a final concentration of 1 μg/mL, 30 μL per well in an AIM-V medium, the plate was shaken on a plate shaker for 3 min before incubating the reaction mixtures at 37° C. for 20 h. Plasma was liberated from each sample by centrifugation (450 g, 5 min, ambient temperature).

In the case of `C[C@@](O)(CS(C)(=O)=O)C(=O)N[C@@H]1CC[C@@]2(S(=O)(=O)c3ccc(F)cc3)c3ccc(C(F)(C(F)(F)F)C(F)(F)F)nc3CC[C@@H]12` [Example 1, (S)—N-((6aS,7R,9aS)-9a-((4-fluorophenyl)sulfonyl)-3-(perfluoropropan-2-yl)-6,6a,7,8,9,9a-hexahydro-5H-cyclopenta[f]quinolin-7-yl)-2-hydroxy-2-methyl-3-(methylsulfonyl)propanamide], the “potency in the human whole blood assay relative to Compound A” value with IL17A was “twice as potent”. Also, the “activity in the Na channel assay (in words)” value in data set [1] was “essentially inactive”. Further, the IC50 in data set [1] (whole-cell patch clamp, read-out: Na Channel) is > 30000 nM.
With `CC(C)(O)CC(=O)N[C@@H]1CC[C@@]2(S(=O)(=O)c3ccc(F)cc3)c3ccc(C(F)(C(F)(F)F)C(F)(F)F)nc3CC[C@@H]12` [Example 2], the IC50 on RORγ was 6 nM.
The same measure, in the same setting: then `O=C(N[C@@H]1CC[C@@]2(S(=O)(=O)c3ccc(F)cc3)c3ccc(C(F)(C(F)(F)F)C(F)(F)F)nc3CC[C@@H]12)C1CCS(=O)(=O)CC1` [Example 3], with 8.4 nM; and `CC(C)(O)C(=O)N[C@@H]1CC[C@@]2(S(=O)(=O)c3ccc(F)cc3)c3ccc(C(F)(C(F)(F)F)C(F)(F)F)nc3CC[C@@H]12` [Example 4], with 3.9 nM; and `O=C(O)C1CC2(C1)CC(C(=O)N[C@@H]1CC[C@@]3(S(=O)(=O)c4ccc(F)cc4)c4ccc(C(F)(C(F)(F)F)C(F)(F)F)nc4CC[C@@H]13)C2` (stereo partly shown) [Example 6], with 7.9 nM.
